Test results from ChEMBL document CHEMBL4387771, “Discovery of 1,2,3-triazole-based fibroblast growth factor receptor modulators” (Bioorg Med Chem Lett, 2019).
Activity calls are given as the source filed them. The calls are words filed in the database; no cut-off is given here.

Key:
[1] = target: Fibroblast growth factor receptor 1 (Rattus norvegicus) (UniProt Q04589); assay: Modulation of FGFR in Wistar rat neuronal cells assessed as protection against glutamate-induced toxicity at 10 uM pretreated for 24 hrs followed by glutamate-stimulation and measured after 24 hrs by CCK8 assay relative to SUN13837; format: cell-based
[2] = Lipophilicity, log P of the compound by RP-HPLC analysis; format: physicochemical
[3] = target: CYP3A4 (Homo sapiens, UniProt P08684); assay: Inhibition of CYP3A4 in human liver microsomes assessed as enzyme residual activity at 100 uM measured after 30 mins relative to control; format: ADME; details: read-out: Activity
[4] = Metabolic stability in human liver microsomes assessed as metabolic turnover rate per mg protein in presence of NADPH; format: ADME, Microsome
[5] = Elimination half life in Sprague-Dawley rat at 1 mg/kg, iv; format: ADME, organism-based; details: in vivo, read-out: beta t1/2 (converted)
[6] = Clearance in Sprague-Dawley rat at 1 mg/kg, iv; format: ADME, organism-based; details: in vivo
[7] = AUC in Sprague-Dawley rat at 5 mg/kg, po; format: ADME, organism-based; details: in vivo
[8] = Oral bioavailability in Sprague-Dawley rat at 5 mg/kg; format: ADME, organism-based; details: in vivo
[9] = Brain to plasma permeability coefficient, Kp of the compound in Sprague-Dawley rat at 1 mg/kg, iv measured after 1 hr; format: ADME, organism-based; details: brain and plasma
[10] = target: Fibroblast growth factor receptor 1 (Rattus norvegicus) (UniProt Q04589); assay: Modulation of FGFR in Wistar rat neuronal cells assessed as protection against glutamate-induced toxicity at 10 uM pretreated for 24 hrs followed by glutamate-stimulation and measured after 24 hrs in presence of FGFR1 inhibitor PD166866 by CCK8 assay; format: cell-based
[11] = Elimination half life in Sprague-Dawley rat at 3 mg/kg, iv; format: ADME, organism-based; details: in vivo, read-out: beta t1/2 (converted)
[12] = Clearance in Sprague-Dawley rat at 3 mg/kg, iv; format: ADME, organism-based; details: in vivo
[13] = Brain to plasma permeability coefficient, Kp of the compound in Sprague-Dawley rat at 3 mg/kg, iv measured after 1 hr; format: ADME, organism-based; details: brain and plasma

Chain of CYP3A4 (P08684 whole entry): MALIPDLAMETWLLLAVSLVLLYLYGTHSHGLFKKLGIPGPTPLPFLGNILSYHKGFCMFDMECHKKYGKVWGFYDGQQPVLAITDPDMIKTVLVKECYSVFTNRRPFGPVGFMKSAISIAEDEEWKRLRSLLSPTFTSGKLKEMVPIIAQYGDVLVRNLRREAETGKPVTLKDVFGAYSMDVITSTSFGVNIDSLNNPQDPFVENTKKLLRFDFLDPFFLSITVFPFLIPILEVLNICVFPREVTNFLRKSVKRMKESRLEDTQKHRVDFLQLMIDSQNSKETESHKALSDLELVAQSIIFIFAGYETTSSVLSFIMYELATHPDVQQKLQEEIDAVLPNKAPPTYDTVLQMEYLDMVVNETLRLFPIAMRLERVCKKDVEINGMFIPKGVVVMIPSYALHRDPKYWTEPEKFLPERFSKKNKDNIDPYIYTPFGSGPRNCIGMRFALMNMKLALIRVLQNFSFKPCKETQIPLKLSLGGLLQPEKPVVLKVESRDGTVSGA
Chain of Fibroblast growth factor receptor 1 (Rattus norvegicus) (Q04589 whole entry): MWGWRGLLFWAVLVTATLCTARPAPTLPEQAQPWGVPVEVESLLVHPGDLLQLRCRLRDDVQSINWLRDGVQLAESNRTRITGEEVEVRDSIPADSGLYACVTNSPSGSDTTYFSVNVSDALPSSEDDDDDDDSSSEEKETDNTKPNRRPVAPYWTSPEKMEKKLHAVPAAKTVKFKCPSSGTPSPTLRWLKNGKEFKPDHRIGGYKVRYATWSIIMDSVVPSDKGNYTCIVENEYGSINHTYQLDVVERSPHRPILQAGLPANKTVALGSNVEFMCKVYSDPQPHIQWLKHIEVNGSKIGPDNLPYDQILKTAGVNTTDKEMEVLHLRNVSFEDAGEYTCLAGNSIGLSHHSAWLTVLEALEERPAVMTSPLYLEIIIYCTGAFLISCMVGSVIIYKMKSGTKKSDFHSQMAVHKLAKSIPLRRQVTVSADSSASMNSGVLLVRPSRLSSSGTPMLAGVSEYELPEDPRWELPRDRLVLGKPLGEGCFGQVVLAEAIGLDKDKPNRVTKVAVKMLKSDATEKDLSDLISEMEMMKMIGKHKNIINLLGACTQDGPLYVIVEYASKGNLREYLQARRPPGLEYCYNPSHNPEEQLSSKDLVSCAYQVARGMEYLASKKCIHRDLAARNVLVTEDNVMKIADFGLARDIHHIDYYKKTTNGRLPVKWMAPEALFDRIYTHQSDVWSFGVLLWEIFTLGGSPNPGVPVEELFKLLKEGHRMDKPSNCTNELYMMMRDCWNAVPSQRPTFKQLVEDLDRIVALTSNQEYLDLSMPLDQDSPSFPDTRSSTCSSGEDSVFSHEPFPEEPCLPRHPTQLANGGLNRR

SMILES	logP [2]	activity at 0.5 h, 100 µM [3] [%]	Drug metabolism [4] [pmol/min]	half-life [5] [h]	clearance [6] [mL/min/kg]	AUC [7] [ng·h/mL]	bioavailability [8] [%]	Kp at 1 h [9]	half-life [11] [h]	clearance [12] [mL/min/kg]	Kp at 1 h [13]	Activity [1] [%]	Activity [10]
Cc1ccc(OCc2cnnn2C2CCN(Cc3ccccc3)CC2)nn1	3.8	–	–	–	–	–	–	–	–	–	–	73	–
Clc1cnc(OCc2cn(C3CCN(CC4CC4)CC3)nn2)nc1	2.6	100	24	1.6	21.7	2120	58	1.1	–	–	–	162	–
Cc1nc(OCc2cn(C3CCN(CC4CC4)CC3)nn2)nc(C)c1N	1.4	100	< 10	–	–	–	–	–	–	–	–	116	–
Cc1cnc(OCc2cn(C3CCN(CC4CC4)CC3)nn2)nc1	1.7	100	–	–	–	–	–	–	–	–	–	100	–
Cc1ccc(OCc2cn(C3CCN(CC4CC4)CC3)nn2)nn1	1.4	100	34	–	–	–	–	–	–	–	–	118	–
Cc1c(COc2ncc(Cl)cn2)nnn1C1CCN(CC2CC2)CC1	2.4	94	< 10	–	–	4520	57	–	4	10	1.3	311	inactive
Cc1nc(OCC(=O)N(C)C2CCN(Cc3ccccc3)CC2)nc(C)c1N	2.3	60	< 10	–	–	–	–	–	–	–	–	–	–

Now from value to molecule, other results behind:

logP [2]	activity at 0.5 h, 100 µM [3] [%]	Drug metabolism [4] [pmol/min]	half-life [5] [h]	clearance [6] [mL/min/kg]	AUC [7] [ng·h/mL]	bioavailability [8] [%]	Kp at 1 h [9]	half-life [11] [h]	clearance [12] [mL/min/kg]	Kp at 1 h [13]	SMILES	Activity [1] [%]	Activity [10]
3.5	100	45	–	–	–	–	–	–	–	–	Cc1ccc(OCc2cn(C3CCN(Cc4ccccc4)CC3)nn2)nn1	135	–
5	99	86	–	–	–	–	–	–	–	–	Clc1cnc(OCc2cn(C3CCN(Cc4ccccc4)CC3)nn2)nc1	43	–
4	100	40	–	–	–	–	–	–	–	–	Cc1cnc(OCc2cn(C3CCN(Cc4ccccc4)CC3)nn2)nc1	66	–
3	19	19	–	–	–	–	–	–	–	–	Cc1nc(OCc2cn(C3CCN(Cc4ccccc4)CC3)nn2)nc(C)c1N	134	inactive
